Measured values published in ChEMBL document CHEMBL1150928, “A new antitubercular mulinane diterpenoid from Azorella madreporica Clos” (J Nat Prod, 1998).
Values after ≈ are worked out from the molar mass of the structure shown.

Legend:
Vero = experiment: Cytotoxicity against african green monkey Vero cells; format: cell-based; conditions: Chlorocebus sabaeus
[1] = system: Mycobacterium tuberculosis; experiment: Antitubercular activity against Mycobacterium tuberculosis H37Rv ATCC 27294; format: functional

SMILES | IC50 (Vero) [µg/mL] | MIC [1] [µg/mL]
CC(C)[C@H]1CC[C@@H]2[C@]1(C)CC[C@@]1(C)CC[C@@](C)(O)[C@@H]3C[C@@]231 | 184 (≈ 633 µM) | 20 (≈ 68.8 µM)
CO[C@H]1/C=C/O[C@@]2(C)Oc3c(C)c(O)c4c(O)c(c(/C=N/N5CCN(C)CC5)c(O)c4c3C2=O)NC(=O)/C(C)=C\C=C\[C@H](C)[C@H](O)[C@@H](C)[C@@H](O)[C@@H](C)[C@H](OC(C)=O)[C@@H]1C [RIFAMPIN] | > 158 | –
